Data published in PubChem BioAssay AID624344 (Sanford-Burnham Center for Chemical Genomics, 2012).
The source made the active and inactive calls. How the calls were made is not given here.

What was measured:
[1] = NFkB reporter suppression in cystic fibrosis bronchial cells – cell-based, uHTS hits, panel, cytotoxicity readout, dose response (AID 624344); conditions: CF bronchial epithelial cells, PAF-induced NFkB reporter inhibition; with PAF, mean of runs
[2] = system: Cytotoxicity; assay: as above; conditions: CF bronchial epithelial cells, mean of runs

Row | SMILES | IC50 [1] | IC50 [2]
1 | Cc1ccccc1C(=O)N1CCN(c2ccc(NC(=O)CSc3ccc(Cl)cc3)cc2)CC1 | 0.879 µM | > 79 µM (inactive)
2 | COc1ccc2[nH]c3c(c2c1)CC(C)NC3=O (configuration not stated) | 1.3 µM | 55.3 µM (inactive)
3 | Cc1nn(-c2ccccc2)c(N2CCCC2)c1/C=N/NC(=O)c1cc(-c2ccccc2)nc2ccccc12 | 5.62 µM | 58.7 µM (inactive)
4 | COc1ccc(-c2cn[nH]c2-c2ccc(O)cc2O)cc1 | 1.76 µM | > 79 µM (inactive)
5 | COc1ccc(-c2cc(-c3nc4ccccn4c3NCc3ccccc3)ccc2OC)cc1 | 4.41 µM | 5.51 µM
6 | Cc1ccc(C)c(S(=O)(=O)N(C(=O)c2ccncc2)c2ccc(OC(=O)c3ccncc3)cc2)c1 | 2.37 µM | 26.2 µM
7 | CC[C@H](CO)Nc1nc(Nc2cccc(Cl)c2)c2ncn(C(C)C)c2n1 | 3.53 µM | 8.91 µM
8 | O=[N+]([O-])c1ccc2ncnc(N3CCN(Cc4ccc5c(c4)OCO5)CC3)c2c1 | 2.62 µM | > 79 µM (inactive)
9 | CC(C)C[C@H]1CNC(=S)N1C[C@H]1CCCN1C[C@H](Cc1ccc(O)cc1)N1C[C@H](Cc2ccc(O)cc2)N(CC2CCCCC2)C1=S | inactive | 51.2 µM (inactive)
10 | CCOC(=O)c1c(C)c2c(=O)[nH]cnc2n1-c1ccccc1 | 1.89 µM | 13.9 µM
11 | CCN1CCN(Cc2ccc(NC(=O)c3ccc(C)c(NC(=O)N4CCNC4=O)c3)cc2C(F)(F)F)CC1 | 1.62 µM | 29.2 µM
12 | O=[N+]([O-])c1cc([N+](=O)[O-])c2oc(-c3ccccc3)c(Br)c2c1O | 2.3 µM | 4.56 µM
13 | COc1ccc(COc2cc(-c3cccc(OC)c3)nc3ccc(NC(=O)c4cccnc4)cc23)cc1 | 4.27 µM | 11.5 µM
14 | COc1ccc(-c2cnc3c(NC=O)cc(-c4ccccc4OC)cn23)cc1OC | 6.5 µM | 13.7 µM
15 | Cc1cccc(N=c2oc3cc(O)ccc3cc2C(N)=O)c1 | 2.77 µM | 45.3 µM
16 | CCCN(CC)c1ncnc2[nH]ncc12 | 1.55 µM | 36.3 µM
17 | NC(c1csc(NC(=O)Nc2cccc(Cl)c2)n1)c1ccccc1Cl (configuration not stated) | 7.54 µM | 21.7 µM
18 | NC1(C(=O)O)CSSC1 | 7.73 µM | 35.6 µM
19 | COCCNc1nc(Oc2cncc(Cl)c2)c2sccc2n1 | 2.9 µM | 29.1 µM
20 | CC(=O)Oc1ccccc1C(=O)Oc1ccc(/C=N/n2cnnc2)cc1 | inactive | 59.5 µM (inactive)
21 | Oc1ccc(CCNc2ncnc3ccc(Cl)cc23)cc1 | 0.831 µM | 40.6 µM

Row | SMILES | IC50 [1] | IC50 [2]
22 | CC(=O)N1CC(=O)N=C1SCC(=O)Nc1nc(C)c(-c2ccccc2)s1 | 9.21 µM | 59.7 µM (inactive)
23 | CCOc1cccc(-c2nnc3sc(C4CCCCC4)nn23)c1 | 2.88 µM | 33.3 µM
24 | CCCn1c(-c2nonc2N)nc2ccccc21 | 4.28 µM | 31.6 µM
25 | C=C(C)[C@@H]1CC[C@]2(C(=O)O)CC[C@]3(C)[C@H](CC[C@@H]4[C@@]5(C)CC[C@H](O)C(C)(C)[C@@H]5CC[C@]43C)[C@@H]12 | inactive | 42.2 µM
26 | C=Cc1ccc(CC2(C)C(=O)Nc3ccc(-c4cccnc4)cc32)cc1 (configuration not stated) | 3.36 µM | 41.9 µM
27 | COc1ccc(-n2nnnc2S(=O)(=O)Cc2ccc(C(=O)O)cc2)cc1 | 1.05 µM | 3.16 µM
28 | O=C(NCCC1=CCCCC1)c1coc(=O)c(Br)c1 | 3.01 µM | 10.7 µM
29 | COc1ccc(-c2cc(=O)oc3cc(OC(=O)C4CCCCC4)ccc23)cc1 | 2.37 µM | > 79 µM (inactive)
30 | O=C(NCCCSc1ccccc1)c1cc(Cl)ccc1O | 5.03 µM | 7.97 µM
31 | COC(=O)c1c(C)n(-c2ccc(OC)cc2)c2ccc(O)cc12 | 2.37 µM | 42.2 µM
32 | COc1ccc(-c2cc(C(F)(F)F)nc(S(=O)(=O)CCCC(=O)Nc3cccnc3Cl)n2)cc1OC | 1.44 µM | 1.32 µM
33 | O=c1[nH]nc(Sc2ncnc3sccc23)n1CCc1ccccc1 | 3.07 µM | 19 µM
34 | COc1ccc(-c2cn[nH]c2-c2ccc(OCc3ccccc3)cc2O)cc1 | 3.7 µM | 16.7 µM
35 | O=C(Nc1ccc(Cl)cc1)c1nc[nH]c1C(=O)NCCCCNC(=O)c1[nH]cnc1C(=O)Nc1ccc(Cl)cc1 | 1.05 µM | 1.11 µM
36 | OCCN1CCN(c2ncnc3ccc(Br)cc23)CC1 | 2.44 µM | 55.7 µM (inactive)
37 | Cc1ccc2c(c1)C(=O)C(=O)N2Cc1ccc(Br)cc1 | 19.1 µM | > 79 µM (inactive)
38 | Cc1ccc(Cl)cc1-c1cc(C(=O)NCc2cc(C(F)(F)F)cc(C(F)(F)F)c2)[nH]n1 | 8.92 µM | 16.6 µM
39 | Cc1cccc(C(=O)N2[C@@H](C(C)C)COc3cc(Br)ccc3S2(=O)=O)c1 | 11.1 µM | 37.8 µM
40 | CCn1c(=O)c2c(cnn2C)c2ccccc21 | 2.18 µM | 46.2 µM
41 | C=CC[C@@H](CC(=O)N(CCO)Cc1ccccc1)C(=O)NC[C@H](OC(=O)[C@@H](CC=C)Cc1ccc(F)cc1)c1ccccc1 | 4.05 µM | 4.23 µM
